Results: ChEMBL document CHEMBL1148159, “An analysis of phakellin and oroidin structures stimulated by further study of an Agelas sponge” (J Nat Prod, 2004)

Biological target: T1, Polyunsaturated fatty acid lipoxygenase ALOX12 (Homo sapiens, UniProt P18054)
T1 sequence (P18054 whole entry): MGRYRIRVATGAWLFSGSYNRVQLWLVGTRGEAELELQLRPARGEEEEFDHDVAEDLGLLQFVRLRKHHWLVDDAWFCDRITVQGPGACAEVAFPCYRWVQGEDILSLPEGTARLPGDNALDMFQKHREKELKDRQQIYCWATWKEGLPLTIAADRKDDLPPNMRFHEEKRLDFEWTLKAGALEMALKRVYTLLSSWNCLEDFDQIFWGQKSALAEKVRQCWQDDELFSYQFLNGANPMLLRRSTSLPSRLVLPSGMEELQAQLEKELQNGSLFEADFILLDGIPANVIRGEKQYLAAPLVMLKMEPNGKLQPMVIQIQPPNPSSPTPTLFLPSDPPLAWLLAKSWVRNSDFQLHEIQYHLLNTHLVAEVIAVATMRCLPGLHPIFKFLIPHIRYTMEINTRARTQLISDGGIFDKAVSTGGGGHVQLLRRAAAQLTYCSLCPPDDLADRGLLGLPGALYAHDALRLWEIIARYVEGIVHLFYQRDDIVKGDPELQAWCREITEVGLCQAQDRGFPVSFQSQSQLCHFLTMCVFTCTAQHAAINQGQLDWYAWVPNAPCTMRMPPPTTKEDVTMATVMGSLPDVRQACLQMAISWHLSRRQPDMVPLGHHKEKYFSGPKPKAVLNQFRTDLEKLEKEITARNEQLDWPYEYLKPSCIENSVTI
Assay: Inhibition of human 12-lipoxygenase

IC50: 10.7 µM
Structure (SMILES): CN1C(N)=N[C@]23CCCN2C(=O)c2cc(Br)c(Br)n2[C@H]13
